Laboratory results published in patent US8895033B2, “Sustained release formulations using non-aqueous carriers” (Amylin Pharmaceuticals, LLC, priority 2008, dated 2014).

Assay: Fraction of drug in microparticles and in MCT oil carrier after storage
Format: physicochemical
Source text: Mixtures ranged from 2% to 10% w/w of the active pharmaceutical ingredient. The mixed powder was transferred to an extruder where the temperature was adjusted according to the chosen polymer. Some polymers needed higher temperatures to produce a melt with good flow properties. The extruder contained twin screws that moved clockwise to produce efficient mixing. The material was extruded through a 1.5 mm orifice, collected, cooled at room temperature, and cut into short strands about 1-2 inches long. These strands were then fed into a 12-tooth rotor mill, followed by a sieving step to produce microparticles of about 20 to 100 microns. The microparticles were collected and stored at 5° C. until further use.
Experimental samples were prepared by dispersing about 50 mg of the microparticles into 0.75 mL of a MCT oil carrier. The samples were stored at 5° C. and 25° C. for two days, two weeks, or one month, at which times representative samples were tested. The fraction of drug that remained in the microparticles and the fraction of drug that partitioned into the MCT oil carrier were determined. Briefly, the samples were centrifuged to separate the microparticles from the MCT oil carrier. Each portion was treated independently to determine the amount of drug it contained. Results are reported on the basis of the percent residing in each independent portion.

[1] = PLGA copolymer, 1 Month Storage at 5° C.
[2] = PLGA copolymer, 1 Month Storage at 25° C.
[3] = PLGA copolymer, 2 Days Storage at 5° C.
[4] = PLGA copolymer, 2 Days Storage at 25° C.
[5] = polycaprolactone/PLGA copolymer, Two Weeks Storage, 5° C.
[6] = polycaprolactone/PLGA copolymer, Two Weeks Storage, 25° C.

Compound | percent of drug in MCT Carrier [1] [%] | percent of drug in Microparticles [1] [%] | percent of drug in MCT Carrier [2] [%] | percent of drug in Microparticles [2] [%] | percent of drug in MCT Carrier [3] [%] | percent of drug in Microparticles [3] [%] | percent of drug in MCT Carrier [4] [%] | percent of drug in Microparticles [4] [%] | percent of drug in MCT Carrier [5] [%] | percent of drug in Microparticles [5] [%] | percent of drug in MCT Carrier [6] [%] | percent of drug in Microparticles [6] [%] | migration into the MCT carrier oil (from microparticles on storage)
metreleptin | 0.0 | 100.0 | 0.0 | 100.0 | 0.0 | 100.0 | 0.0 | 100.0 |  |  |  |  | 
O=C([O-])c1ccccc1O.[Na+] [sodium salicylate] | 1.3 | 98.7 | 1.5 | 98.5 | 0.5 | 99.5 | 2.3 | 97.7 |  |  |  |  | 
insulin | 0.5 | 99.5 | 0.7 |  |  |  |  |  |  |  |  |  | 
bovine serum albumin | 0.0 | 100.0 | 0.0 | 100.0 | 0.0 | 100.0 | 0.0 | 100.0 |  |  |  |  | 
CC[C@H](C)[C@H](NC(=O)[C@@H]1CCCN1C(=O)CNC(=O)[C@H](Cc1ccccc1)NC(=O)[C@H](CC(N)=O)NC(=O)[C@H](CC(N)=O)NC(=O)[C@H](CO)NC(=O)[C@H](CO)NC(=O)[C@H](Cc1c[nH]cn1)NC(=O)[C@@H](NC(=O)[C@H](CC(C)C)NC(=O)[C@H](Cc1ccccc1)NC(=O)[C@H](CC(N)=O)NC(=O)[C@H](C)NC(=O)[C@H](CC(C)C)NC(=O)[C@H](CCCNC(=N)N)NC(=O)[C@H](CCC(N)=O)NC(=O)[C@@H](NC(=O)[C@H](C)NC(=O)[C@@H]1CSSC[C@H](NC(=O)[C@@H](N)CCCCN)C(=O)N[C@@H](CC(N)=O)C(=O)N[C@@H]([C@@H](C)O)C(=O)N[C@@H](C)C(=O)N[C@@H]([C@@H](C)O)C(=O)N1)[C@@H](C)O)C(C)C)C(=O)N[C@@H](CC(C)C)C(=O)N1CCC[C@H]1C(=O)N1CCC[C@H]1C(=O)N[C@H](C(=O)N[C@@H](CC(N)=O)C(=O)N[C@H](C(=O)NCC(=O)N[C@@H](CO)C(=O)N[C@@H](CC(N)=O)C(=O)N[C@H](C(=O)N[C@@H](Cc1ccc(O)cc1)C(N)=O)[C@@H](C)O)C(C)C)[C@@H](C)O [pramlintide] | 0.3 | 99.7 | 0.0 | 100.0 | 0.0 | 100.0 | 0.0 | 100.0 | 0.0 | 100.0 | 0.0 | 100.0 | 
O=C(O)c1ccccc1O [salicylic acid] | 0.1 | 99.9 | 0.2 | 99.8 | 1.1 | 98.9 | 0.9 | 99.1 |  |  |  |  | did not migrate
davalintide | 0.6 | 99.4 | 0.0 | 100.0 | 0.2 | 99.8 | 0.0 | 100.0 |  |  |  |  | 
